# Data from patent publication US20210369680A1, “METHODS OF TREATING DISEASES AND DISORDERS RESULTING FROM BETA CORONAVIRUS INFECTION” (T3D Therapeutics, Inc., priority 2020, published 2021).
# Experiment: Fasted plasma metabolomics, clinical study
# Type: in vivo, human
# Protocol: Plasma Metabolomic Data from Clinical Study with Compound of Example 11
# Fasted plasma metabolomics biomarkers were examined seeking evidence of systemic and brain pharmacological effects of Compound from Example 11. Over 800 chemically defined metabolites were examined for each dose group and a ratio EOT/BL) was calculated with an associated p value. Four dose groups were tested, 3, 10 30 and 90 mg. In general, the 30 and 90 mg dose groups had the largest impact on the metabolomics profile, each with 120 metabolites with p<0.05, while the 3 and 10 mg groups had smaller effects (40 and 61 with p<0.05 respectively). The metabolites were split into about 60 families. […] BCAAs are positively correlated with insulin resistance and diabetes. […] Some of these metabolites, such as isovaleryl and isobutyryl carnitine are part of a principal component shown to be positively associated with insulin resistance. The numbers in Table 7 are ratios of the dose group averages end of treatment (EOT) to baseline (BL). A green box indicates a statistically significant (p<0.05) decrease in metabolite. The light green indicates the p value is between 0.05 and 0.1. Statistical comparisons between doses and visits were conducted using Two-Way Repeated Measure ANOVA. Reference is made to Newgard CB, 2017. Metabolomics and Metabolic Disease, Where Do We Stand? Cell Metabolism 25: 43-56, which is incorporated by reference with regard to the example.
structure (smiles),measurement,setting,value
"CCc1oc(-c2ccc(OC)cc2)nc1CCOc1ccc2c(c1)CC[C@H]2CC(=O)[O-].[Na+] [Example 11, Sodium (S)-2-(5-(2-(5-ethyl-2-(4-methoxyphenyl)oxazol-4-yl)ethoxy)-2,3-dihydro-1H-inden-1-yl)acetate]","2-methylbutyrylcarnitine (C5), ratio EOT/BL",3 mg,0.99
same,"3-hydroxybutyrlcarnite, ratio EOT/BL",3 mg,1.2
same,"Adrenoylcarnitine (C22:4)*, ratio EOT/BL",3 mg,1.41
same,"Arachidonoylcarnitine (C20:4), ratio EOT/BL",3 mg,1.34
same,"Arachidoylcarnitine (C20)*, ratio EOT/BL",3 mg,1.11
same,"Ceramide (d18:2/24:1, d18:1/24:2), ratio EOT/BL",3 mg,1.08
same,"Dihomo-linoleoylcarnitine (C20:2)*, ratio EOT/BL",3 mg,1.24
same,"Docosapentaenoylcarnitine (C22:5n3)*, ratio EOT/BL",3 mg,1.39
same,"Eicosenoylcarnitine (C20:1), ratio EOT/BL",3 mg,1.22
same,"Linolenoylcarnitine (C18:3)*, ratio EOT/BL",3 mg,1.17
same,"Linoleoylcarnitine (C18:2)*, ratio EOT/BL",3 mg,1.22
same,"Margaroylcarnitine*, ratio EOT/BL",3 mg,1.03
same,"Myristoycarnitine (C14), ratio EOT/BL",3 mg,1.32
same,"N-acetylleucine, ratio EOT/BL",3 mg,0.98
same,"N-palmitoyl-sphingosince (d18:1/16:0), ratio EOT/BL",3 mg,1.06
same,"N-stearoyl-sphinogosince (d18:1/18:0), ratio EOT/BL",3 mg,1.05
same,"Oleoylcarnitine (C18:1), ratio EOT/BL",3 mg,1.34
same,"Palmitoleoylcarnitine (C16:1)*, ratio EOT/BL",3 mg,1.44
same,"Palmitoylcaritine (C16), ratio EOT/BL",3 mg,1.25
same,"Stearoylcarnitine (C18), ratio EOT/BL",3 mg,1.11
same,"acetylcarnitine (C2), ratio EOT/BL",3 mg,1.14
same,"ceramide (d16:1/24:1, d18:1/22:1), ratio EOT/BL",3 mg,1.13
same,"ceramide (d18:1/14:0, d16:1/16:0), ratio EOT/BL",3 mg,1.1
same,"ceramide (d18:1/17:0, d17:1/18:0), ratio EOT/BL",3 mg,1.03
same,"ceramide (d18:1/20:0, d16:1/22:0 d20:1/18:0), ratio EOT/BL",3 mg,1.12
same,"isobutyrylcarnitine (C4), ratio EOT/BL",3 mg,0.95
same,"isoleucine, ratio EOT/BL",3 mg,0.93
same,"isovalerylcarnitine (C5), ratio EOT/BL",3 mg,1.11
same,"laurylcarnitine (C12), ratio EOT/BL",3 mg,1.4
same,"leucine, ratio EOT/BL",3 mg,0.95
same,number of metabolites with p<0.05,3 mg,40
same,"octanoylcarnitine (C8), ratio EOT/BL",3 mg,1.33
same,"valine, ratio EOT/BL",3 mg,0.93
same,"2-methylbutyrylcarnitine (C5), ratio EOT/BL",10 mg,1.02
same,"3-hydroxybutyrlcarnite, ratio EOT/BL",10 mg,1.19
same,"Adrenoylcarnitine (C22:4)*, ratio EOT/BL",10 mg,1.23
same,"Arachidonoylcarnitine (C20:4), ratio EOT/BL",10 mg,1.23
same,"Arachidoylcarnitine (C20)*, ratio EOT/BL",10 mg,1.09
same,"Ceramide (d18:2/24:1, d18:1/24:2), ratio EOT/BL",10 mg,0.96
same,"Dihomo-linoleoylcarnitine (C20:2)*, ratio EOT/BL",10 mg,1.24
same,"Docosapentaenoylcarnitine (C22:5n3)*, ratio EOT/BL",10 mg,1.18
same,"Eicosenoylcarnitine (C20:1), ratio EOT/BL",10 mg,1.03
same,"Linolenoylcarnitine (C18:3)*, ratio EOT/BL",10 mg,1.19
same,"Linoleoylcarnitine (C18:2)*, ratio EOT/BL",10 mg,1.21
same,"Margaroylcarnitine*, ratio EOT/BL",10 mg,1.15
same,"Myristoycarnitine (C14), ratio EOT/BL",10 mg,1.13
same,"N-acetylleucine, ratio EOT/BL",10 mg,1
same,"N-palmitoyl-sphingosince (d18:1/16:0), ratio EOT/BL",10 mg,1.02
same,"N-stearoyl-sphinogosince (d18:1/18:0), ratio EOT/BL",10 mg,0.98
same,"Oleoylcarnitine (C18:1), ratio EOT/BL",10 mg,1.1
same,"Palmitoleoylcarnitine (C16:1)*, ratio EOT/BL",10 mg,1.11
same,"Palmitoylcaritine (C16), ratio EOT/BL",10 mg,1.12
same,"Stearoylcarnitine (C18), ratio EOT/BL",10 mg,1.19
same,"acetylcarnitine (C2), ratio EOT/BL",10 mg,1.03
same,"ceramide (d16:1/24:1, d18:1/22:1), ratio EOT/BL",10 mg,.095
same,"ceramide (d18:1/14:0, d16:1/16:0), ratio EOT/BL",10 mg,1.05
same,"ceramide (d18:1/17:0, d17:1/18:0), ratio EOT/BL",10 mg,1.12
same,"ceramide (d18:1/20:0, d16:1/22:0 d20:1/18:0), ratio EOT/BL",10 mg,1.05
same,"isobutyrylcarnitine (C4), ratio EOT/BL",10 mg,1.01
same,"isoleucine, ratio EOT/BL",10 mg,0.94
same,"isovalerylcarnitine (C5), ratio EOT/BL",10 mg,0.97
same,"laurylcarnitine (C12), ratio EOT/BL",10 mg,1.17
same,"leucine, ratio EOT/BL",10 mg,0.98
same,number of metabolites with p<0.05,10 mg,61
same,"octanoylcarnitine (C8), ratio EOT/BL",10 mg,1.21
same,"valine, ratio EOT/BL",10 mg,1.06
same,"2-methylbutyrylcarnitine (C5), ratio EOT/BL",30 mg,0.96
same,"3-hydroxybutyrlcarnite, ratio EOT/BL",30 mg,1.26
same,"Adrenoylcarnitine (C22:4)*, ratio EOT/BL",30 mg,1.44
same,"Arachidonoylcarnitine (C20:4), ratio EOT/BL",30 mg,1.34
same,"Arachidoylcarnitine (C20)*, ratio EOT/BL",30 mg,1.16
same,"Ceramide (d18:2/24:1, d18:1/24:2), ratio EOT/BL",30 mg,0.92
same,"Dihomo-linoleoylcarnitine (C20:2)*, ratio EOT/BL",30 mg,1.47
same,"Docosapentaenoylcarnitine (C22:5n3)*, ratio EOT/BL",30 mg,1.65
same,"Eicosenoylcarnitine (C20:1), ratio EOT/BL",30 mg,1.43
same,"Linolenoylcarnitine (C18:3)*, ratio EOT/BL",30 mg,1.35
same,"Linoleoylcarnitine (C18:2)*, ratio EOT/BL",30 mg,1.37
same,"Margaroylcarnitine*, ratio EOT/BL",30 mg,1.14
same,"Myristoycarnitine (C14), ratio EOT/BL",30 mg,1.29
same,"N-acetylleucine, ratio EOT/BL",30 mg,0.91
same,"N-palmitoyl-sphingosince (d18:1/16:0), ratio EOT/BL",30 mg,0.89
same,"N-stearoyl-sphinogosince (d18:1/18:0), ratio EOT/BL",30 mg,0.82
same,"Oleoylcarnitine (C18:1), ratio EOT/BL",30 mg,1.51
same,"Palmitoleoylcarnitine (C16:1)*, ratio EOT/BL",30 mg,1.66
same,"Palmitoylcaritine (C16), ratio EOT/BL",30 mg,1.29
same,"Stearoylcarnitine (C18), ratio EOT/BL",30 mg,1.24
same,"acetylcarnitine (C2), ratio EOT/BL",30 mg,1.19
same,"ceramide (d16:1/24:1, d18:1/22:1), ratio EOT/BL",30 mg,0.71
same,"ceramide (d18:1/14:0, d16:1/16:0), ratio EOT/BL",30 mg,0.86
same,"ceramide (d18:1/17:0, d17:1/18:0), ratio EOT/BL",30 mg,0.91
same,"ceramide (d18:1/20:0, d16:1/22:0 d20:1/18:0), ratio EOT/BL",30 mg,0.83
same,"isobutyrylcarnitine (C4), ratio EOT/BL",30 mg,0.77
same,"isoleucine, ratio EOT/BL",30 mg,0.96
same,"isovalerylcarnitine (C5), ratio EOT/BL",30 mg,0.99
same,"laurylcarnitine (C12), ratio EOT/BL",30 mg,1.35
same,"leucine, ratio EOT/BL",30 mg,1
same,number of metabolites with p<0.05,30 mg,120
same,"octanoylcarnitine (C8), ratio EOT/BL",30 mg,1.44
same,"valine, ratio EOT/BL",30 mg,0.96
same,"2-methylbutyrylcarnitine (C5), ratio EOT/BL",90 mg,0.81
same,"3-hydroxybutyrlcarnite, ratio EOT/BL",90 mg,1.53
same,"Adrenoylcarnitine (C22:4)*, ratio EOT/BL",90 mg,1.54
same,"Arachidonoylcarnitine (C20:4), ratio EOT/BL",90 mg,1.31
same,"Arachidoylcarnitine (C20)*, ratio EOT/BL",90 mg,1.17
same,"Ceramide (d18:2/24:1, d18:1/24:2), ratio EOT/BL",90 mg,0.99
same,"Dihomo-linoleoylcarnitine (C20:2)*, ratio EOT/BL",90 mg,1.54
same,"Docosapentaenoylcarnitine (C22:5n3)*, ratio EOT/BL",90 mg,1.45
same,"Eicosenoylcarnitine (C20:1), ratio EOT/BL",90 mg,1.61
same,"Linolenoylcarnitine (C18:3)*, ratio EOT/BL",90 mg,1.25
same,"Linoleoylcarnitine (C18:2)*, ratio EOT/BL",90 mg,1.22
same,"Margaroylcarnitine*, ratio EOT/BL",90 mg,1.21
same,"Myristoycarnitine (C14), ratio EOT/BL",90 mg,1.56
same,"N-acetylleucine, ratio EOT/BL",90 mg,0.82
same,"N-palmitoyl-sphingosince (d18:1/16:0), ratio EOT/BL",90 mg,0.89
same,"N-stearoyl-sphinogosince (d18:1/18:0), ratio EOT/BL",90 mg,0.82
same,"Oleoylcarnitine (C18:1), ratio EOT/BL",90 mg,1.46
same,"Palmitoleoylcarnitine (C16:1)*, ratio EOT/BL",90 mg,1.79
same,"Palmitoylcaritine (C16), ratio EOT/BL",90 mg,1.31
same,"Stearoylcarnitine (C18), ratio EOT/BL",90 mg,1.18
same,"acetylcarnitine (C2), ratio EOT/BL",90 mg,1.23
same,"ceramide (d16:1/24:1, d18:1/22:1), ratio EOT/BL",90 mg,0.84
same,"ceramide (d18:1/14:0, d16:1/16:0), ratio EOT/BL",90 mg,0.77
same,"ceramide (d18:1/17:0, d17:1/18:0), ratio EOT/BL",90 mg,0.84
same,"ceramide (d18:1/20:0, d16:1/22:0 d20:1/18:0), ratio EOT/BL",90 mg,0.84
same,"isobutyrylcarnitine (C4), ratio EOT/BL",90 mg,0.57
same,"isoleucine, ratio EOT/BL",90 mg,0.84
same,"isovalerylcarnitine (C5), ratio EOT/BL",90 mg,0.68
same,"laurylcarnitine (C12), ratio EOT/BL",90 mg,1.56
same,"leucine, ratio EOT/BL",90 mg,0.8
same,number of metabolites with p<0.05,90 mg,120
same,"octanoylcarnitine (C8), ratio EOT/BL",90 mg,1.58
same,"valine, ratio EOT/BL",90 mg,0.79
